We go through four compounds from patent US4973603A, “Platelet activating factor antagonist and methods of use therefor” (priority 1989, dated 1990).

Where two headings read alike, the source gives them in different places.

Data set [1] concerns gastric mucosa. The note with it: 1 hour; for Mean Score: scale 0-3 (0 = normal mucosa). As for the experimental part: Robert and Szabo, In: Selye's Guide to Stress Research, (Vol. 2, A. Selye, Ed.) New York; Van Nostrand Reinhold Co., pp. 22-46 (1983); and Robert et al., Gastroenterology, 77:433-443 (1979). Experimental groups of 5-11 rats (Charles River CD) were fasted for 24 hours before the administration of either aspirin, Formula I or indomethacin by a rubber stomach tube (Rusch No. 8). The animals were killed 1 hour later by carbon dioxide asphyxiation. At that time, 4 ml of 10% aqueous buffered formaldehyde (formalin) was injected directly into the stomach of each animal. […] After 5 minutes of in situ fixation, the stomach and proximal duodenum were removed, opened along the greater curvature, pinned on a cork with mucosa upward, and immersed in 10% formaldehyde until further processing. Szabo, S. et al., J. Pharmacol. Meth., 13:59-66 (1985). The gastric lesions were then evaluated by direct visual inspection.
For comparative purposes, a semiquantitative scale of 0-3 was used to assess the extent of gastric mucosal lesions. Szabo et al., Science, 214:200-202 (1981); and Szabo et al., Gastroenterology, 85:1384-1390 (1983). According to this scale, a score of 0 indicates a normal mucosa; 1 represents the appearance of between 1 and 4 small petechiae; 2 indicates the presence of 5 or more petechiae or hemmorhagic streaks up to 4 mm in length; 3 represents the appearance of erosions longer than 5 mm or confluent hemmorrhages.

The test system of the next data set is arachidonic acid. The data set can be described thus: The Mouse Ear Edema Test (arachidonic acid-induced skin edema). The data set is classed as in vivo, mouse (Charles River CD-1, female). The note with it: 1 hour before arachidonic acid (0.5 mg). The text has this: The direct application of arachidonic acid to skin, such as the mouse ear, produces an edematous response which is believed to be mediated by eicosanoids resulting from the actions of both cyclooxygenase and lipoxygenase systems. J. M. Young, D. A. Spires, C. J. Bedford, B. Wagner, S. J. Ballaron and L. M. DeYoung, J. Invest. Dermatol. 82:367-371 (1984); E. E. Opas, R. J. Bonney, and J. L. Hanes J. Invest. Dermatol. 84:253-256 (1985). PAF has been reported to cause the release of arachidonic acid, and as a result, gives rise to increased levels of eicosanoids in the exposed tissues. F. H. Chilton, J. T. Flaherty, C. E. Walsh, M. J. Thomas, R. L. Wykle, L. R. DeChatelet and B. M. Waite, J. Biol. Chem., 257:5402-5407 (1982). Thus, the mouse ear edema test can be used to discover substances which antagonize the effects of PAF.
The test drugs were dissolved in 10 μl ethanol and applied to the inner surface of the left ears of Charles River CD-1 female mice. Control values were obtained by applying 10 μl of ethanol to the right ear so that each mouse served as its own control. One hour later, arachidonic acid (0.5 mg/ear in 10 μl ethanol) was applied to both ears and allowed to act on the skin for one hour. The mice were then killed by cervical dislocation and the ears removed so that all tissue samples were of equivalent areas. The extent of edema in each sample was measured by weighing on an analytical balance.

Data set [2] concerns platelet activating factor (PAF). The data set can be described thus: PAF Induced Mortality. The note with it: for protective effect (in words): compared with Formula I. The data set is classed as in vivo, mouse (Charles River CD-1, female). As to the method: The induction of mortality by the injection of low doses of PAF into mice has been described as a method for assessing the effectiveness of agents to antagonize the anaphylactic properties of PAF by J. M. Young, P. J. Maloney, S. W. Jubb and J. S. Clarke, in Prostaglandins, 30:545-551 (1985). Charles River CD-1 female mice (25-30 g) were given intraperitoneal injections of PAF (10 μg) dissolved in 100 μl of 5% ethanol-saline. […] Test drugs were orally administered in 50 μl of peanut oil one hour prior to PAF injection. Control mice were dosed with vehicle only. Mortality was assessed by counting survivors at one hour, two hours, and twenty four hours after the PAF injection.

The test system of data set [3] is gastric mucosa. The note with it: common adverse effect of consumption; cited from earlier work.
Data set [4] deals with platelet activating factor (PAF). The data set can be described thus: PAF Induced Paw Edema in the Mouse. In kind it is in vivo, mouse (Charles River CD-1, female). The note with it: 1 hour before PAF (1 ug/paw), 15 min after PAF. As for the experimental part:
The experimental procedure was adapted from Calhoun et al., Agents & Actions, 21:306-309 (1987). Charles River CD-1 female mice (20-25 G) were given a dose of Formula I, or phenidone, using peanut oil as a carrier. Control mice were given doses of the carrier alone. The drugs were administered orally in a 50 μl volume of peanut oil. One hour later, 1.0 μg of PAF dissolved in 50 μl of 5% ethanol-saline was injected subcutaneously into the plantar surface of the right hind paw. The volume of this injected foot to the level of the lateral malleous was measured by water displacement immediately before drug administration and again 15 minutes after PAF injection.
The effectiveness of each compound was analyzed in the following manner. The individual paw volumes were compared by a paired t test analysis in which predrug paw volumes were compared to paw volumes 15 minutes after PAF injection to determine the level of statistical significance. The percent inhibition of edema volume was obtained from the ratio of the mean predrug volume to the mean volume after PAF.

Data set [5] shares this test system. The note with it: reported by Calhoun et al., Agents & Actions, 21:306-309 (1987); cited from earlier work.
The mark [6] stands for this setting: 20 mg/kg oral, 1 hr after PAF (10 μg i.p.).
Setting [7] is: 20 mg/kg oral, 2 hrs after PAF (10 μg i.p.).
Setting [8] is: 20 mg/kg oral, 24 hrs after PAF (10 μg i.p.).
Setting [9] is: 40 mg/kg oral, 1 hr after PAF (10 μg i.p.).
Setting [10] is: 40 mg/kg oral, 2 hrs after PAF (10 μg i.p.).
[11] abbreviates: 40 mg/kg oral, 24 hrs after PAF (10 μg i.p.).

Regarding `CC(=O)Oc1ccccc1C(=O)O` [Aspirin, aspirin], the “Mean Score” value in the data set with gastric mucosa [1] (100 mg/kg by stomach tube) is recorded as 1.9.

As for `COc1ccc2c(c1)c(CC(=O)O)c(C)n2C(=O)c1ccc(Cl)cc1` [Indomethacin, indomethacin], the “Incidence (rats with lesions/total tested)” value with gastric mucosa [1] (10 mg/kg by stomach tube) is 2/5; in the data set with gastric mucosa [1] (20 mg/kg by stomach tube) it was 6/11. The “Mean Score” value in the data set on gastric mucosa [1] (10 mg/kg by stomach tube) turned out to be 0.6; in the data set on gastric mucosa [1] (20 mg/kg by stomach tube), 0.77. The “% Inhibition of Edema” value is 24.1% in the data set with arachidonic acid (0.05 mg/ear topical) and 21.8% in the data set on arachidonic acid (0.10 mg/ear topical).

As to `COc1ccc2cc([C@H](C)C(=O)O)ccc2c1` [Naproxen, naproxen, reference compound], the “Survivors (%)” value is on record as 40% in data set [2] (setting [6]); 40% in data set [2] (setting [7]); 20% in data set [2] (setting [8]); 100% in data set [2] (setting [9]); 60% in data set [2] (setting [10]); 60% in data set [2] (setting [11]). In addition, the Survivors/N is listed as 4/10 in data set [2] (setting [6]); 4/10 in data set [2] (setting [7]); 2/10 in data set [2] (setting [8]); 5/5 in data set [2] (setting [9]); 3/5 in data set [2] (setting [10]); 3/5 in data set [2] (setting [11]). In addition, the “protective effect (in words)” value in data set [2] is listed as “less protective than Formula I, particularly at longer time intervals”. For the same compound, the “gastrointestinal damage (in words)” value in the data set on gastric mucosa [3] was “gastrointestinal damage, generally manifested as bleeding and/or frank ulceration”.

With `O=C1CCN(c2ccccc2)N1` [Phenidone, phenidone, reference compound], the “% Inhibition of Edema” value in data set [4] (40 mg/kg oral) was found to be 20.4%; in data set [4] (80 mg/kg oral) it was 35.7%; in the data set with arachidonic acid (0.063 mg/ear topical), 15.4%; with arachidonic acid (0.13 mg/ear topical) it was 26.6%; with arachidonic acid (0.25 mg/ear topical), 24.4%. Further, the “Survivors (%)” value in data set [2] (setting [9]), in data set [2] (setting [10]) and in data set [2] (setting [11]) was 20% throughout. Moreover, the Survivors/N in data set [2] (setting [9]), in data set [2] (setting [10]) and in data set [2] (setting [11]) was 1/5 throughout. In addition, the “protective effect (in words)” value in data set [2] is recorded as “less protective than Formula I, particularly at longer time intervals”. Further, in data set [5], the “effectiveness against PAF edema (in words)” value is on record as “effective against PAF edema”. In the data set with gastric mucosa [3], the “gastrointestinal damage (in words)” value is reported as “gastrointestinal damage, generally manifested as bleeding and/or frank ulceration”.
